Patent publication US9499614B2, “Methods for modulating protein glycosylation profiles of recombinant protein therapeutics using monosaccharides and oligosaccharides” (AbbVie, Inc., priority 2013, dated 2016)

What was measured:
Cell Line 1 [1] = test: N-glycan oligosaccharide profiling, Cell Line 1 in 3 L laboratory-scale bioreactors; format: cell-based, Chinese Hamster; conditions: 50 mM supplement vs control
Procedure: Purified antibodies subjected to additional analytical characterization were purified using MabSelect™ Protein A (GE Healthcare, Piscataway, N.J.) using a low pH, step elution gradient, followed by buffer exchange using Corning Lifesciences (Tewksbury, Mass.) Spin Concentrator X UF columns according to the manufacturers' recommended procedures.
Approximately 200 μg of Protein A purified samples from Cell Lines 1 and 2 were treated with N-glycanase at 37° C. overnight to remove the N-glycans from the protein. The protein was precipitated and the supernatant was taken for subsequent chemical derivatization of the reducing end of the released glycans with 2-aminobenzamide (2-AB) dye. Following the derivatization step, the excess label was removed using clean up cartridges and the samples were analyzed using normal phase HPLC with fluorescent detection. Mobile phase A was 100% acetonitrile and mobile phase B was 50 mM ammonium formate pH 4.4. The glycans were eluted from a polyamide column (Prozyme, Hayward, Calif.) using a shallow gradient. The labeled glycans were detected using a fluorescence detector with an excitation wavelength of 330 nm and an emission wavelength of 420 nm.
3 L scale-down model bioreactors were utilized to verify the impact of select sugars on the resulting protein glycosylation profiles. The concentration of the sucrose and tagatose was chosen to minimize any potential adverse impact on cell growth and productivity, but still facilitate a measurable modulation of the glycosylation profile. Cell culture process performance indicators were monitored and measured throughout the respective cultures. Viable cell density, cell viability, lactate, pCO2, osmolality, harvest titer, and harvest N-glycan oligosaccharide data were measured and reported.
3 L scale laboratory bioreactors were utilized to verify the impact of sucrose, tagatose, or fructose on protein glycosylation profiles. Concentrations of the sugars were chosen to minimize any potential adverse impacts on cell growth and productivity, but still facilitate a measurable impact on the glycoform profile. Cell culture process performance indicators were monitored and measured throughout the study. Viable cell density, cell viability, lactate, pCO2, osmolality, harvest titer, and harvest N-glycan oligosaccharide data was measured and reported.

Cell Line 1 [2] = test: Shake flask fedbatch culture of Cell Line 1 (Antibody 1), cell culture performance (Example 2); format: cell-based, Chinese Hamster; conditions: for Antibody 1 harvest titer: 1, 10, 30, 50, 70 mM vs control
Procedure: Two recombinant Chinese Hamster Ovary (CHO) cell lines expressing two different recombinant glycoproteins were evaluated in two different cultures vessels (shaker flasks and 3 L laboratory scale bioreactors). Cell Line 1 expressed Antibody 1, Cell Line 2 expressed Dual Variable Domain Immunoglobulin 1 (DVD 1) and Cell Line 3 expressed Antibody 2. Antibodies 1 and 2 are IgG1 proteins, and DVD 1 is an immunoglobulin with two variable domains as documented previously (Wu C. et al., (2007) Nat. Biotechnol 25(11):1290-1297). All cell lines were of CHO DUX-B11 origin based on a dhfr (dihydrofolate reductase) expression system. All cell lines were cultured in the same chemically defined basal media. Cell lines 1 and 2 were fed with the same chemically-defined feed media, but Cell Line 1 was fed media that was formulated at a 50% higher concentration. Each of the respective media were supplemented with either sucrose or tagatose to evaluate their potential impact on the resulting N-glycan oligosaccharide profile. All sugars were purchased from Sigma-Aldrich (St. Louis, Mo.). In preparation of the cultures, the cell lines were serially expanded through separate seed train inoculums to generate enough cells for inoculation. […] [table] Viable cell density (VCD) and cell viability values were measured through trypan blue exclusion via Cedex automated cell counters (Roche Applied Science, Indianapolis, Ind.), glucose and lactate values were measured with a ABL-805 (Radiometer Medical, Denmark) blood gas analyzer. Offline pH, dissolved oxygen (DO), and pCO2 measurements were performed with an ABL-805 (Radiometer Medical, Denmark) blood gas analyzer. Osmolality was measured on a Multi-Osmette 2430 osmometer (Precision Systems, Natick, Mass.). Antibody titers were measured from crude cell culture harvests on a Poros A™ (Life Technologies, Carlsbad, Calif.) affinity column using an Agilent (Santa Clara, Calif.) 1200 Series HPLC, or equivalent, operating with a low pH, step elution gradient with detection at 280 nm. Absolute concentrations were assigned with respect to reference standard calibration curves. Experimental results are expressed as mean±SD for those results generated from at least three independent cultures. Experimental results are expressed as the measured value for those results generated from less than three independent cultures. Results were evaluated for statistical significance through 2-sided t-tests, with a requirement of p<0.05 relative to the unsupplemented control conditions. Cell Line 1 was cultured in shake flasks in fedbatch mode after an abbreviated seed train. Sucrose and tagatose were supplemented into chemically-defined basal and feed media at concentrations of 1, 10, 30, 50, and 70 mM, and compared to unsupplemented control conditions. The viable cell density (VCD), viability, and harvest titer results are shown in FIGS. 13A-13C for the sucrose supplemented cultures and FIGS. 14A-14C for the tagatose supplemented cultures.

With `OC[C@H]1O[C@@](CO)(O[C@H]2O[C@H](CO)[C@@H](O)[C@H](O)[C@H]2O)[C@@H](O)[C@@H]1O` [sucrose] the “Man 5 increase” value (Cell Line 1 [1]) was 16%, the “Man 6 increase” value (Cell Line 1 [1]) was 5% and the “Man 7 increase” value (Cell Line 1 [1]) was 3%. For the same compound, the “decrease in NA1F” value (Cell Line 1 [1]) was 3%, the “decrease in NGA2F species” value (Cell Line 1 [1]) was 29% and the “increase in NA1F-GlcNAc” value (Cell Line 1 [1]) was 1%. For the same compound, the “increase in NGA2F-GlcNAc” value (Cell Line 1 [1]) was 7%, the “increase in overall mannosylation” value (Cell Line 1 [1]) was 24% and the “overall decrease in fucosylation” value (Cell Line 1 [1]) was 24%. The “peak VCD” value (Cell Line 1 [2]; 50 mM and 70 mM) was “reduction in peak VCD”, the “increase in harvest titer” value (Cell Line 1 [2]; 50 mM vs control) was 2% and the “Antibody 1 harvest titer” value (Cell Line 1 [2]) was “essentially indistinguishable from the control conditions”. The “viable cell density over time” value (Cell Line 1 [2]; 1, 10 and 30 mM) was “remained essentially the same” and the “cell viability after process day 10” value (Cell Line 1 [2]; 10, 30, 50 and 70 mM) was “died slower than the control”.

With `O=C(CO)[C@@H](O)[C@@H](O)[C@H](O)CO` [tagatose] the “Man 5 increase” value (Cell Line 1 [1]) was 7%, the “Man 6 increase” value (Cell Line 1 [1]) was 2% and the “Man 7 increase” value (Cell Line 1 [1]) was 1%. For the same compound, the “decrease in NA1F” value (Cell Line 1 [1]) was 3%, the “decrease in NGA2F species” value (Cell Line 1 [1]) was 15% and the “increase in NA1F-GlcNAc” value (Cell Line 1 [1]) was 1%. For the same compound, the “increase in NGA2F-GlcNAc” value (Cell Line 1 [1]) was 6%, the “increase in overall mannosylation” value (Cell Line 1 [1]) was 10% and the “overall decrease in fucosylation” value (Cell Line 1 [1]) was 11%. For the same compound, the “viable cell density over time” value (Cell Line 1 [2]; 1 mM and 10 mM) was “remained similar or higher”, the “decrease in harvest titer” value (Cell Line 1 [2]; 70 mM vs control) was 9% and the “Antibody 1 harvest titer” value (Cell Line 1 [2]) was “essentially indistinguishable”. For the same compound, the “cell viability after process day 10” value (Cell Line 1 [2]; 30, 50 and 70 mM) was “died slower than the control” and the “peak VCD” value (Cell Line 1 [2]; 30, 50 and 70 mM) was “reduction in peak VCD”.
